The source of these data is patent US11613552B2, “Pharmaceutical agents, compositions, and methods relating thereto” (Alltech, Inc., priority 2017, dated 2023).

In one data set the test system is INSRβ/AS160. The data set can be described thus: Western blot of INSRβ and AS160 phosphorylation in HepG2 cells. It counts as cell-based, human. Particulars: 600 ppb, 30 and 60 minutes (FIG. 23). The protocol: HepG2 cells were seeded on 6-well plates (7×10^5 cells/well) and cultured in 10% FBS EMEM media for 30 hr. Then these cells were washed twice with PBS to remove residual sera, and serum-starved in plain EMEM media overnight. These serum-starved HepG2 cells were treated without or with Compound #43 (600 ppb) in serum-free media for 0 minute (right before the treatment), 30 and 60 minutes.
After the above treatments, cultured HepG2 cells or differentiated C2C12 cells were rinsed twice with ice-cold PBS and lysed in ice-cold RIPA buffer containing complete proteinase and phosphatase inhibitors (Thermo-Fisher Scientific, Waltham, Mass.) on ice for 30 min. […] Protein levels in the supernatant of these cell lysates were determined using the Pierce Micro-BCA protein assay kit (Thermo Scientific-Piece Biotechnology, Rockford, Ill.) according to the manufacturer's protocol.
One hundred micrograms of skeletal muscle or liver tissue proteins, five micrograms of HepG2 cell protein extracts, or eight micrograms of differentiated C2C12 cell protein extracts were subjected to SDS-PAGE gel separation and then transferred to PVDF membranes, as described previously (Reddy et al. 2008 Science). […] Positive signals on the membrane blots were detected using the Amersham's enhanced chemiluminescence Western Blotting Prime Detection reagents (GE Healthcare Lifescience, Pittsburgh, Pa.). […]

Data set [1] relates to G6PC. The data set can be described thus: QRT-PCR of G6PC expression in HepG2 cells. The class given is cell-based, human. Particulars: 100 nM insulin or 600 ppb Compound #43, serum-free, 40 hr (FIG. 10B). The protocol: For RNA analysis of basal G6pc expression (without the presence of diabetic stimuli: 8-CPT/Dex), amplified AML-12 and HepG2 cells were cultured on 24-well plates (0.5-2×10^5 cells/well) overnight in 10% FBS ITS- and Dex-free DMEM/F12 media and 10% FBS EMEM media, respectively. These cells were rinsed twice with PBS to remove residual sera. Then, the PBS-washed HepG2 cells were treated without or with insulin or Compound #43 in serum-free EMEM media for 40 hr. In some experiments, the PBS-washed AML-12 cells were incubated without or with Compound #43 or other selenium compounds in serum-free DMEM/F12 media for 24 hours. In other experiments, amplified AML-12 cells were pretreated without or with Compound #43 (150 or 300 ppb) in 10% FBS but ITS/Dex-free DMEM/F12 media for 24 hr. After 24 hr treatment, AML-12 cells were washed twice with PBS (to remove any residual serum in the culture) and then treated with insulin, Compound #43 or both, in the serum-free DMEM/Dex media for 6 hr.
Total RNA from saline- or selenium compound-treated Lepr^db/db mice was isolated using a Qiagen RNAeasy RNA isolation kit according to the Manufacturer's protocol. Total RNA from cultured cells was isolated using Trizol (Invitrogen) according to the manufacturer's protocol, and then incubated with DNase I to remove any potential contaminating genomic DNA. […]

In data set [2] the test system is G6pc. The data set can be described thus: QRT-PCR of 8-CPT/Dex-induced G6pc expression in AML-12 cells. It counts as cell-based, mouse. Particulars: for G6pc mRNA level normalized by non-8-CPT/Dex-treated group: with 8-CPT/Dex (8-CPT/Dex alone 41.5). The procedure:
For RNA analysis of the diabetic stimuli-induced G6pc expression, the AML-12 cells were pretreated without or with Compound #43 (150 or 300 ppb) in 10% FBS but ITS/Dex-free DMEM/F12 media for 24 hr. Then these cells were washed twice with PBS remove any residual sera, and incubated with Compound #43 (150 or 300 ppb) in the presence or absence of insulin (10 or 100 nM), or 0.1 mM 8-CPT (Sigma) and 0.5 μM Dex in serum-free plain DMEM/F12 media for another 6 hours.
Total RNA from saline- or selenium compound-treated Lepr^db/db mice was isolated using a Qiagen RNAeasy RNA isolation kit according to the Manufacturer's protocol. Total RNA from cultured cells was isolated using Trizol (Invitrogen) according to the manufacturer's protocol, and then incubated with DNase I to remove any potential contaminating genomic DNA. RNA samples were subjected to real-time PCR (QRT-PCR) analysis using Applied-Bioscience's RT kit and predesigned Taqman probes (Invitrogen), as described previously (Lan et al EMBO J 2003). Data were normalized by Actin B (Actb) mRNA levels in each sample, and are presented as mean±SEM of 3-5 samples.

A further data set has as its system HepG2 cells. The data set can be described thus: Cell viability (CellTiter96 AQueous One) in HepG2 cells. It counts as cell-based, human. To be noted: all tested doses, 48 hr. The procedure: After the above treatments, 50 μl of culture media were collected, and subjected to glucose analysis using Molecular Probes Amplex Red glucose assay kit (Cat #A22189) according to the manufacturer's protocol. Cell numbers or viability in the culture plate after the above compound treatments were determined using Promega's CellTiter96® AQueous One Solution Cell Proliferation Assay kits, according to the manufacturer's protocol and instructions. In brief, after removing 50 μl of culture media for glucose assay, cells were incubated with AQueous One solution (25 μl stock solution and 50 μl prewarmed PBS/per well) at 37° C. for 1 hour, and the absorbance of OD490 nm in each sample was determined by the Bio-Tek microplate reader. Cell viability in culture wells were determined by the subtraction of OD490 nm in cultured cells with the OD490 nm in plain culture media (without seeding of cells). Glucose production in the culture cells were obtained by normalizing the glucose concentration in culture media by cell viability in each well. At least 3 samples per each treatment were examined for the above analysis. Data are presented as Mean±SEM of those samples. Experiments were repeated at least twice.

Turning to `C[Se]C[C@H]1O[C@@H](n2cnc3c(N)ncnc32)C(OC(C)=O)C1OC(C)=O` (stereo partly shown) [Compound #43, Adenosine, 5′-Se-methyl-5′-selino-, 2′,3′-diacetate], in the data set on INSRβ/AS160, the “phosphorylated AS160” value is on record as “significant increase of phosphorylated AS160 at 5588” and the “phosphorylated INSRβ at Y1146” value is “significant increase of phosphorylated INSRβ at Y1146”. In addition, in the data set on G6PC [1], the “effect on G6PC expression” value is “significantly attenuated”. In addition, the “reduction of 8-CPT/Dex-induced G6pc expression vs 8-CPT/Dex group” value in the data set with G6pc [2] (150 and 300 ppb alone) is recorded as about 68%. For the same compound, the “effect on 8-CPT/Dex-induced G6pc expression” value in the data set on G6pc [2] (150 or 300 ppb co-treated with 100 nM insulin) is on record as “almost completely abolished 8-CPT/Dex-induced G6pc expression”. Moreover, in the data set on G6pc [2] (150 ppb, Column #5 FIG. 11), the “G6pc mRNA level normalized by non-8-CPT/Dex-treated group” value was found to be 13. In the data set on G6pc [2] (300 ppb, Column #8 FIG. 11), the “G6pc mRNA level normalized by non-8-CPT/Dex-treated group” value was 13.5. The cell viability entry in the data set with HepG2 cells is “no significant decrease of cell viability”.

As for “insulin: insulin purchased from Sigma, positive control”, the “effect on G6PC expression” value in the data set on G6PC [1] was “significant decrease of G6PC expression”. The “effect on 8-CPT/Dex-induced G6pc expression” value in the data set with G6pc [2] (10 nM and 100 nM insulin, 6 hr) is given as “significantly decreased 8-CPT/Dex-induced G6pc expression”.
